Measured values as given in patent US20150064221A1, “COMPOUNDS HAVING IMMUNOMUDULATOR ACTIVITY” (priority 2012, published 2015).
“Also recorded” adds a separate entry of the source.

Key:
[1] = biological target: COX-2 (Homo sapiens, UniProt P35354); assay: COX-2 activity; type: biochemical
Procedure: (§1) The highest plasma concentrations generally occurred in 1-2 hours. […] The highest level of inhibition was ˜35% for 2C19 at a 30 μM concentration. […] Lastly, VGX-1027 is stable in human liver S9 fractions (with phase 1 and 2 cofactors) with t1/2>90 minutes, which indicates a low likelihood of metabolism in the liver.

[2] = Oral absorption in mice; type: in vivo
Procedure: as §1

[3] = test system: splenic mononuclear cells (SMNC); assay: Ex vivo proliferation and cytokine synthesis of SMNC from treated mice; type: cell-based
Procedure: (§2) These experiments were carried out to explore if intraperitoneal (i.p.) or oral administration (p.o.) in mice with VGX-1027 could influence the proliferative response of SMNC and the production of IL-1β, IL-10, TNF-α, IFN-γ and MIF from isolated PM and SMNC. PM and SMNC isolated from mice treated in vivo with VGX-1027 for 7 consecutive days intraperitoneally (0.5 mg/mouse), or orally (2.5 mg/mouse), or isolated from control animals that received VGX-1027 vehicle (Na2HPO4/H2O), or were without any treatment. 24 h after the last VGX-1027 treatment, PM and SMNC were collected for further in vitro stimulation and analysis.

[4] = Twenty-eight day toxicology study in mice; type: in vivo; conditions: 28 days, highest dose 500 mg/kg/day
Procedure: Twenty-eight day toxicology studies were performed in both mice and dogs with increasing concentration to achieve toxicity. The following are the results of those studies.

[5] = test system: splenic DCs; assay: LPS-induced maturation of dendritic cells in vivo; set-up: species or system mice; conditions: 0.5 mg/mouse 1 hour prior to LPS
Procedure: Mice were given VGX-1027 (0.5 mg/mouse) or a control, and then injected with LPS (25 μg/mouse) 1 hour later. At 3 hours post LPS administration, the mice were sacrificed, and (A) % of splenic DCs with CD86 and (B) MFI of CD86 from the CD86+ cells were measured.
To determine if this effect could be translated in vivo, mice were injected with LPS and the % of DCs that express CD86, which is a maturation marker, and the MR of CD86 on the positive cells were measured. The activation of DCs via CD86 expression, and not total cytokine levels, was measured in order to ascertain the direct affects of VGX-1027 on DCs. In vivo cytokine measurement could be confounded by other cytokine producing cells, such as macrophages. The mice were injected with LPS or LPS+VGX-1027 (VGX-1027 was given 1 hour prior to LPS administration) 3 hours post injection. The spleen from these mice were extracted and analyzed for DCs with CD86 expression. […] Moreover, the VGX1027-induced decrease in the percentage of cells that expressed CD86 and was associated with a decrease in the expression of CD86 per cell (FIG. 7b). Therefore, VGX-1027 inhibits LPS-induced production of Th17-promoting inflammatory cytokines by DCs in vitro and reduces LPS-induced maturation of DCs in vivo.

[6] = test system: STAT3; assay: IL-6 induced STAT3 phosphorylation in CD4+ T cells (Western blot); type: cell-based; conditions: IL-6 20 ng/ml, 10 uM
Procedure: FIG. 17. Western blot (A) and relative densitometric analysis (B) of the levels of phospho-STAT3 in CD4+ T cells after stimulation with IL-6.
In vitro T-cell treatment: Naive, sorted CD4+ T cells were obtained from the University of Pennsylvania School of Medicine, Immunology Clinical Core, cultured in vitro with IL-6 (20 ng/ml) in the presence or absence of VGX1027 (10 uM) for 0, 30 min, 1 hr, 2 hrs and 5 hrs. At the end of the incubation period, cells were lysed for 30 min at 4° C. by using the Nonidet P-40 lysis buffer (Invitrogen) supplemented with a phosphatase inhibitor mixture (PhosSTOP) and a protease inhibitor mixture (Complete) as directed by the manufacturer (Roche Applied Science). Lysates were collected and spun at 10,000 rpm for 5 min at 4° C., and then, 50 ug of proteins were mixed with 2× sample buffer (Invitrogen) for subsequent 4-12% SDS-PAGE electrophoresis. Afterward, proteins were transferred to nitrocellulose using the iBlot Dry Blotting System (Invitrogen), immunodetection was performed with the SNAP i.d. Protein Detection System (Millipore) using specific p-STAT3 and STAT3 monoclonal antibodies (Cell Signaling), and the expressed proteins were visualized with HRP-conjugated goat antimouse IgG using an ECL detection system (Amersham Biosciences, Piscataway, N.J.).

[7] = test system: MLD-STZ-induced diabetes; assay: Streptozotocin (MLD-STZ) induced diabetes; type: in vivo, CBA/H mice
Procedure: (A) Euglycaemic female 12 week old NOD mice were treated intraperitoneally with either 20 mg/kg bw VGX-1027 or its vehicle six times a week from the 12th until the 25th week of age. An additional control group of mice was left untreated. Each group consisted of 16 mice. The data are representative of two independent experiments that were merged because of interstudies variability lower than 10%. Statistical analysis was performed by Logrank (Mantel-Cox). (B) Plasma glucose levels in control CBA/H mice receiving STZ (40 mg/kg/day, for 5 consecutive days) in conjunction with 12 daily intreperitoneum injections of vehicle (STZ), or in mice treated with STZ and VGX-1027 given as a continuous 12-day treatment. 100 mg/kg bw of VGX-1027, administered orally from day −1 to day +10. Results from a representative experiment are presented as mean±SD for seven to eight mice per group. *p<0.05 refers to treatment with MLD-STZ.
Both intraperitoneal and oral treatment with VGX-1027 suppressed clinical development of diabetes. Clinical development of diabetes was attempted to be induced in CBA/H mice by multiple low doses of streptozotocin. CBA/H mice developed sustained hyperglycemia over a 2-week period following MLD-STZ injections. As expected, CBA/H control mice treated with the vehicle of VGX-1027 either orally or intraperitoneally developed diabetes with sustained hyperglycemia developed over a 2-week period following MLD-STZ injections.
The effect of VGX-1027 with STZ-induced diabetes was also evaluated. STZ is a DNA alkylating agent with particular toxicity to pancreatic β cells. VGX-1027 was administered orally for 12 days, and STZ was administered into mice for 5 consecutive days starting a day after VGX-1027 treatment.

[8] = test system: Peritoneal macrophages (PM); assay: Ex vivo cytokine synthesis by PM from treated mice; type: cell-based
Procedure: as §2

Sequence of COX-2 (P35354 18-604): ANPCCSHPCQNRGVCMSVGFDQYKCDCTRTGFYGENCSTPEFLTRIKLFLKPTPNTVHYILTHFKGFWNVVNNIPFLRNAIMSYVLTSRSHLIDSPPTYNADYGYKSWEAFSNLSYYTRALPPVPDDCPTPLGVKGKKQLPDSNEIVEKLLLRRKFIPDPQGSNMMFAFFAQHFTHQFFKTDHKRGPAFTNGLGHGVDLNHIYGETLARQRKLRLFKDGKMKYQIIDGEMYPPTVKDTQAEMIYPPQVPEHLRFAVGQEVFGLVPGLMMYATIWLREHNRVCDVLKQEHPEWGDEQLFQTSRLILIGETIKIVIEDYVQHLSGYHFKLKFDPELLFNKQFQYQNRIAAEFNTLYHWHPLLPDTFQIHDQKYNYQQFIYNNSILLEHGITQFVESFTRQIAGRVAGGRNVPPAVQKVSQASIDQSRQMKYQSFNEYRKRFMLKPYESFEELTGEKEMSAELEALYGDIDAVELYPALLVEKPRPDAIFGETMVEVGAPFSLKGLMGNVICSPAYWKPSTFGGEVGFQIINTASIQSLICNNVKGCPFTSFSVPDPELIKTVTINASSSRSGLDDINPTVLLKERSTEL

O=C(O)CC1CC(c2ccccc2)=NO1 (stereo not shown) [VGX-1027, 3-phenyl-4,5-dihydro-5-isoxazoleacetic acid]
inhibition of COX-2 activity [1]: no significant inhibition
oral absorption [2]: rapidly absorbed
time of highest plasma concentrations [2]: 1 to 2 h
IFN-γ production [3]: normal capacity
IL-1 β production [3]: normal capacity
IL-10 production [3]: normal capacity
MIF expression [3]: normal expression pattern
TNF-α production [3]: normal capacity
capacity to proliferate ([3]; mice treated 7 days): normal capacity
toxicology findings [4]: notable changes found in kidneys, liver, spleen, testis, epidydimus and bladder
expression of CD86 per cell (MFI) [5]: decrease
overall percentage of DCs in the spleen [5]: without affecting
% of DCs that expressed CD86 ([5]; 3 hours post LPS): reduced this percentage
magnitude of STAT3 phosphorilation [6]: overall reduction
time of maximum STAT3 activation after IL-6 [6]: 1 h
diabetogenic effect of MLD-STZ ([7]; intraperitoneally): significantly reduced
development of hyperglycemia ([7]; orally (100 mg/kg, 12 days), 100 mg/kg): did not develop hyperglycemia; also recorded: significantly reducing
infiltration of immune cells, atrophy and loss of islet margins in pancreas ([7]; orally, 12 days): prevented
IL-10 synthesis ([8]; mice treated 7 days): impaired synthesis
TNF-α synthesis ([8]; mice treated 7 days): impaired synthesis
IL-1 β synthesis ([8]; mice treated 7 days i.p. 0.5 mg/mouse or orally 2.5 mg/mouse): impaired synthesis
MIF expression ([8]; mitogenic stimulation): normal pattern
